# Test results taken from patent publication US8008288B2, “Anti-inflammatory A-aminocyclolactam compounds” (Cambridge Enterprise Limited, priority 2004, dated 2011).
# What was measured:
# [1] = test system: MCP-1 induced leukocyte migration (THP-1 cells); assay: Inhibition of chemokine (MCP-1) induced leukocyte migration in vitro, transwell assay; assay type: cell-based, human
# Description: In principle, this assay consists of two chambers separated by a porous membrane. The chemoattractant is placed in the lower compartment and the cells are placed in the upper compartment. After incubation for a period at 37° C. the cells move towards the chemoattractant, and the number of cells in the lower compartment is proportional to the chemoattractant activity (relative to a series of controls).
# This assay can be used with a range of different leukocyte populations. For example, freshly prepared human peripheral blood leukocytes may used. Alternatively, leukocyte subsets may be prepared, including polymorphonuclear cells or lymphocytes or monocytes using methods well known to those skilled in the art such as density gradient centrifugation or magnetic bead separations. Alternatively; immortal cell lines which have been extensively validated as models of human peripheral blood leukocytes may be used, including, but not limited to THP-1 cells as a model of monocytes or Jurkat cells as model of naïve T cells.
# The THP-1 cell line (European Cell culture Collection) were used as the leukocyte cell population.
# The following procedure is used for testing the invention compounds for MCP-1 induced leukocyte migration:
# First, the cell suspension to be placed in the upper compartment is prepared. […]
# [2] = assay type: in vitro ADME, human
# From the text: As an approach to identifying such stable analogs, various derivatives of (S)-3-(undec-10-enoyl)-aminoglutarimide have been tested for their stability in serum.
# [3] = cited from earlier work
molecule,measurement,setting,value
C=CCCCCCCCCC(=O)[C@@H]1CCCNC1=O [(S)-3-(undec-10-enoyl)-tetrahydropyridin-2-one],potency compared with the parental molecule,[1]; parental molecule (S)-3-(undec-10-enoyl)-aminoglutarimide,considerably reduced potency
same,stability in human serum,"[2]; human, 7 days",at least 7 days
"C=CCCCCCCCCC(=O)N[C@H]1CCC(=O)NC1=O [NR58,4, (S)-3-(undec-10-enoyl)-aminoglutarimide]",enzymatic ring opening of the aminoglutarimide ring in serum,[2],susceptible to enzymatic ring opening in serum
c(DCys-DGln-DIle-DTrp-DLys-DGln-DLys-DPro-DAsp-DLeu-DCys)-NH2 [NR58-3.14.3],half-life period of clearance from blood plasma,[3]; after intravenous injection,less than 30 minutes
same,oral bioavailability,"[3]; in vivo, po",not orally bioavailable
O=C1NCCCC[C@@H]1NC(=O)C12CC3CC(CC(C3)C1)C2 [(S)-3-(adamantane-1-carbonylamino)azepin-2-one],potency in vitro as broad-spectrum chemokine inhibitor (BSCI),[1]; in vitro,sub-nanomolar
